# Measurements reported in patent US20090298848A1, “Methods and Compositions for Treating Barth Syndrome, Cardiomyopathy, Mitochondrial Diseases and Other Conditions” (CORTENDO INVEST AB,, priority 2006, published 2009).
# Where two headings read alike, the source gives them in different places.
# Columns and labels:
# [1] = cited from earlier work
# [2] = in vivo, cited from earlier work
# hepatic cardiolipin = assay: Measurement of hepatic cardiolipin following 91 days dosing in Beagle dogs; type: in vivo; conditions: male Beagle dogs, vs placebo
# Method: Male Beagle dogs were treated with empty gelatin capsules (Placebo) or gelatin capsules containing sufficient 2S,4R enantiomer of ketoconazole to provide a dose of 20 mg/kg body weight. After 91 days of therapy, the amount of cardiolipin present in the livers of the dogs was determined. The amount of cardiolipin with fatty acids of the different indicated classes was determined independently. SFA, saturated fatty acids; MUFA, […] fatty acids; PUFA, poly-unsaturated fatty acid; n3, fatty acids in which the first double bond is at C3; n6, fatty acids in which the first double bond is at C6; n9, fatty acids in which the first double bond is at C9.
# Male Beagle dogs were treated with empty gelatin capsules (Placebo) or gelatin capsules containing sufficient 2S,4R enantiomer of ketoconazole to provide a dose of 20 mg/kg body weight. After 91 days of therapy, the amount of cardiolipin present in the livers of the dogs was determined. The amount of cardiolipin with fatty acids of the different indicated classes was determined independently. The different classes are arranged according to the proportion that they are found in the placebo treated animals.
# The effect of the 2S,4R enantiomer of ketoconazole enantiomers on cardiolipin levels in Beagle dogs was determined. The dogs were approximately 6-7 months of age at the initiation of the experiment and weighed 8-10 kg. To generate the results shown in FIGS. 1 and 2, eight male beagle dogs were used. Four of these dogs were dosed daily with an empty capsule, and four dogs were dosed with a gelatin capsule containing sufficient 2S,4R enantiomer of ketoconazole for each dog to receive 20 mg/kg body weight of the 2S,4R enantiomer of ketoconazole. The capsules were prepared weekly, placed in a labeled pill bottle and stored at 23° C.±3° C. until dispensed for dosing. […] Lipid content of the livers was determined using a combination of high pressure liquid chromatography (HPLC) and mass spectrometry. […]
# testosterone = assay: Testosterone suppression after single dose in rats; type: in vivo
# corticosterone = assay: Serum corticosterone reduction after oral dosing in rats; type: in vivo; conditions: 200 mg drug/kg body weight, within 4 hours of oral dosing
# plasma cholesterol = assay: Plasma cholesterol suppression in rats; type: in vivo; conditions: 200 mg drug/kg body weight
# [3] = normal volunteers, 200 mg dose of the racemic mixture, oral; cited from earlier work
# [4] = Oral pharmacokinetics in dogs
# [5] = Toxicology of DIO-902 in dogs, oral dosing for 28 days; conditions: oral doses up to 20 mg/kg/day for 28 days
# [6] = patients with Cushing's syndrome
structure (smiles),measurement,setting,value
"CC(=O)N1CCN(c2ccc(OCC3COC(Cn4ccnc4)(c4ccc(Cl)cc4Cl)O3)cc2)CC1 (racemic) [racemic ketoconazole, 1-acetyl-4-[4-[[2-(2,4-dichlorophenyl)-2-[(1H-imidazol-1-yl)-methyl]-1,3-dioxolan-4-yl]methoxy]phenyl]piperazine]",cortisol synthesis,"[1]; human, in vivo",inhibits cortisol synthesis
same,plasma cortisol,"[1]; human, in vivo",decrease plasma cortisol
same,cholesterol levels in humans,[1]; humans (Sonino et al. 1991; Gylling et al. 1993),lower cholesterol levels
same,blood pressure,[1]; [6],reduces
same,cholesterol,[1]; [6],reduces
same,glucose,[1]; [6],reduces
same,"1,25 dihydroxy Vitamin D",[2],reduces
same,hepatotoxicity,[2],associated with hepatotoxicity
same,testosterone,[2],reduces
same,hepatotoxicity,[2]; listed as racemic mixture,can cause hepatoxicity
"CC(=O)N1CCN(c2ccc(OC[C@@H]3CO[C@@](Cn4ccnc4)(c4ccc(Cl)cc4Cl)O3)cc2)CC1 (relative stereo) [DIO-902, 2S,4R cis-1-acetyl-4-[4-[[2-(2,4-dichlorophenyl)-2-(1H-imidazol-1-ylmethyl)-1,3-dioxolan-4-yl]methoxyl]phenyl]piperazine]",amount of cardiolipin in the livers as a function of the liver wet weight,hepatic cardiolipin; 20 mg/kg body weight daily in gelatin capsule,increased cardiolipin levels
same,"hepatic cardiolipin by fatty acid carbon chain length and bond number, FIG. 2",hepatic cardiolipin; 20 mg/kg,able to increase the levels of cardiolipin that contain fatty acids of a wide variety of carbon chain length with different numbers of carbon bonds
same,"hepatic cardiolipin by fatty acid class (SFA, MUFA, PUFA, n3, n6, n9), FIG. 1",hepatic cardiolipin; 20 mg/kg,able to increase the levels of cardiolipin that contain both saturated and unsaturated fatty acids
same,time for testosterone levels to return to normal,testosterone; 200 mg drug/kg body weight,≤ 8 h
same,time to testosterone suppression after dosing,testosterone; 200 mg drug/kg body weight,within four hours
same,testosterone level,testosterone; single dose 200 mg drug/kg body weight,10 % of basal
same,serum corticosterone level,corticosterone,25 % of basal
same,plasma cholesterol,plasma cholesterol,suppresses plasma cholesterol
same,maximum plasma concentration,[3],approximately 3.6 μg/mL
same,time of maximum plasma concentration,[3],2 h
same,oral availability,[4],orally available
same,body weight,[5],reduction in body weight
same,cholesterol,[5],trend to a decrease in cholesterol
same,food intake,[5],reduction in food intake
same,other serum chemistry and hematological parameters,[5],no noted changes
